Literature values, collected in PubChem BioAssay AID1259409 (Chemical Carcinogenesis Research Information System (CCRIS), 2018).

Test system: rodent chemically induced tumor inhibition, incidence and multiplicity
Assay: CCRIS tumor inhibitor studies
Settings: Dose [Inhibitor]: 0

COc1cc(CNC(=O)CCCC/C=C/C(C)C)ccc1O
tumour outcome (control, treated, inhibition, significance) (Carcinogen: 7,12-DIMETHYLBENZ[A]ANTHRACENE, 57-97-6, 0.01% IN DIET BEGINNING 3 WK POST CARCINOGEN DOSE AND CONTINUING FOR 6 WK (STUDY DURATION: 9 WK), Route [Inhibitor]: ORAL, Species: MOUSE, Strain/Sex: SWISS/FEMALE, Target Tissue: Type of Lesion: LUNG: ADENOMA, Dose [Carcinogen]: 40 UG ONCE ADMINISTERED TO NEWBORN MICE, Promoter: NONE USED): 17/17 (100%), 20/22 (91%), 9%, not calculated | tumour outcome (control, treated, inhibition, significance) (Carcinogen: 7,12-DIMETHYLBENZ[A]ANTHRACENE, 57-97-6, 0.01% IN DIET BEGINNING 3 WK POST CARCINOGEN DOSE AND CONTINUING FOR 6 WK (STUDY DURATION: 9 WK), Route [Inhibitor]: ORAL, Species: MOUSE, Strain/Sex: SWISS/MALE, Target Tissue: Type of Lesion: LUNG: ADENOMA, Dose [Carcinogen]: 40 UG ONCE ADMINISTERED TO NEWBORN MICE, Promoter: NONE USED): 10/10 (100%), 23/24 (96%), 4%, not calculated | tumour outcome (control, treated, inhibition, significance) (Carcinogen: AZOXYMETHANE (25843-45-2), 500 PPM IN DIET FOR 4 WK, BEGINNING 1 WK BEFORE THE FIRST CARCINOGEN DOSE (STUDY DURATION: 38 WK), Route [Inhibitor]: ORAL, Species: RAT, Strain/Sex: F344/MALE, Target Tissue: Type of Lesion: LARGE INTESTINE: ADENOCARCINOMA, Dose [Carcinogen]: 15 MG/KG BW 1 INJECTION/WK FOR 3 WK, Promoter: NONE USED): 9/15 (60%), 4/17 (24%), 60%, p = 0.0407 | tumour outcome (control, treated, inhibition, significance) (Carcinogen: AZOXYMETHANE (25843-45-2), 500 PPM IN DIET FOR 4 WK, BEGINNING 1 WK BEFORE THE FIRST CARCINOGEN DOSE (STUDY DURATION: 38 WK), Route [Inhibitor]: ORAL, Species: RAT, Strain/Sex: F344/MALE, Target Tissue: Type of Lesion: LARGE INTESTINE: ADENOMA, Dose [Carcinogen]: 15 MG/KG BW 1 INJECTIONS/WK FOR 3 WK, Promoter: NONE USED): 4/15 (27%), 1/17 (6%), 78%, not significant | tumour outcome (control, treated, inhibition, significance) (Carcinogen: AZOXYMETHANE (25843-45-2), 500 PPM IN DIET FOR 4 WK, BEGINNING 1 WK BEFORE THE FIRST CARCINOGEN DOSE (STUDY DURATION: 38 WK), Route [Inhibitor]: ORAL, Species: RAT, Strain/Sex: F344/MALE, Target Tissue: Type of Lesion: SMALL INTESTINE: ADENOCARCINOMA, Dose [Carcinogen]: 15 MG/KG BW 1 INJECTION/WK FOR 3 WK, Promoter: NONE USED): 4/15 (27%), 3/17 (18%), 33%, not significant | tumour outcome (control, treated, inhibition, significance) (Carcinogen: AZOXYMETHANE (25843-45-2), 500 PPM IN DIET FOR 4 WK, BEGINNING 1 WK BEFORE THE FIRST CARCINOGEN DOSE (STUDY DURATION: 38 WK), Route [Inhibitor]: ORAL, Species: RAT, Strain/Sex: F344/MALE, Target Tissue: Type of Lesion: SMALL INTESTINE: ADENOMA, Dose [Carcinogen]: 15 MG/KG BW 1 INJECTION/WK FOR 3 WK, Promoter: NONE USED): 1/15 (7%), 0/17 (0%), 100%, not significant | tumour outcome (control, treated, inhibition, significance) (Carcinogen: AZOXYMETHANE (25843-45-2), 500 PPM IN DIET FOR 34 WK, BEGINNING 1 WK AFTER THE LAST CARCINOGEN DOSE (STUDY DURATION: 38 WK), Route [Inhibitor]: ORAL, Species: RAT, Strain/Sex: F344/MALE, Target Tissue: Type of Lesion: LARGE INTESTINE: ADENOCARCINOMA, Dose [Carcinogen]: 15 MG/KG BW 1 INJECTION/WK FOR 3 WK, Promoter: NONE USED): 9/15 (60%), 6/14 (43%), 28%, not significant | tumour outcome (control, treated, inhibition, significance) (Carcinogen: AZOXYMETHANE (25843-45-2), 500 PPM IN DIET FOR 34 WK, BEGINNING 1 WK AFTER THE LAST CARCINOGEN DOSE (STUDY DURATION: 38 WK), Route [Inhibitor]: ORAL, Species: RAT, Strain/Sex: F344/MALE, Target Tissue: Type of Lesion: LARGE INTESTINE: ADENOMA, Dose [Carcinogen]: 15 MG/KG BW 1 INJECTION/WK FOR 3 WK, Promoter: NONE USED): 4/15 (27%), 2/14 (14%), 48%, not significant | tumour outcome (control, treated, inhibition, significance) (Carcinogen: AZOXYMETHANE (25843-45-2), 500 PPM IN DIET FOR 34 WK, BEGINNING 1 WK AFTER THE LAST CARCINOGEN DOSE (STUDY DURATION: 38 WK), Route [Inhibitor]: ORAL, Species: RAT, Strain/Sex: F344/MALE, Target Tissue: Type of Lesion: SMALL INTESTINE: ADENOCARCINOMA, Dose [Carcinogen]: 15 MG/KG BW 1 INJECTION/WK FOR 3 WK, Promoter: NONE USED): 4/15 (27%), 3/14 (21%), 22%, not significant | tumour outcome (control, treated, inhibition, significance) (Carcinogen: AZOXYMETHANE (25843-45-2), 500 PPM IN DIET FOR 34 WK, BEGINNING 1 WK AFTER THE LAST CARCINOGEN DOSE (STUDY DURATION: 38 WK), Route [Inhibitor]: ORAL, Species: RAT, Strain/Sex: F344/MALE, Target Tissue: Type of Lesion: SMALL INTESTINE: ADENOMA, Dose [Carcinogen]: 15 MG/KG BW 1 INJECTION/WK FOR 3 WK, Promoter: NONE USED): 1/15 (7%), 0/14 (0%), 100%, not significant | tumour outcome (control, treated, inhibition, significance) (Carcinogen: BENZO[A]PYRENE, 50-32-8, 0.01% IN DIET BEGINNING 3 WK POST CARCINOGEN DOSE AND CONTINUING FOR 6 WK (STUDY DURATION: 9 WK), Route [Inhibitor]: ORAL, Species: MOUSE, Strain/Sex: SWISS/FEMALE, Target Tissue: Type of Lesion: LUNG: ADENOMA, Dose [Carcinogen]: 1 MG ONCE ADMINISTERED TO NEWBORN MICE, Promoter: NONE USED): 8/34 (24%), 4/30 (13%), 46%, p<0.05 | tumour outcome (control, treated, inhibition, significance) (Carcinogen: BENZO[A]PYRENE, 50-32-8, 0.01% IN DIET BEGINNING 3 WK POST CARCINOGEN DOSE AND CONTINUING FOR 6 WK (STUDY DURATION: 9 WK), Route [Inhibitor]: ORAL, Species: MOUSE, Strain/Sex: SWISS/MALE, Target Tissue: Type of Lesion: LUNG: ADENOMA, Dose [Carcinogen]: 1 MG ONCE ADMINISTERED TO NEWBORN MICE, Promoter: NONE USED): 7/35 (20%), 3/34 (9%), 55%, p<0.01 | tumour outcome (control, treated, inhibition, significance) (Carcinogen: BENZO[A]PYRENE, 50-32-8, 1 UMOL IN 0.2 ML ACETONE APPLIED 24 AND 1 HR PRIOR TO CARCINOGEN DOSE (STUDY DURATION: 22 WK), Route [Inhibitor]: DERMAL, Species: MOUSE, Strain/Sex: CD-1/FEMALE, Target Tissue: Type of Lesion: SKIN: TUMOR, Dose [Carcinogen]: 0.3 UMOL IN 0.2 ML ACETONE ONCE, Promoter: 12-O-TETRADECANOYLPHORBOL 13-ACETATE, 16561-29-8): 84%, 68%, 19%, not significant | tumour outcome (control, treated, inhibition, significance) (Carcinogen: N-METHYLNITROSOUREA, 684-93-5, DIETHYLNITROSAMINE, 55-18-5, N,N-DIBUTYLNITROS- AMINE, 924-16-3, Carcinogen: N-METHYLNITROSOUREA, 684-93-5, DIETHYLNITROSAMINE, 55-18-5, N,N-DIBUTYLNITROS- AMINE, 924-16-3, 0.01% IN DIET FOR 16 WK BEGINNING POST LAST CARCINOGEN DOSE (STUDY DURATION: 20 WK), Route [Inhibitor]: ORAL, Species: RAT, Strain/Sex: F344/MALE, Target Tissue: Type of Lesion: LUNG: ADENOMA, Dose [Carcinogen]: 100 MG/KG DIETHYLNITROSAMINE INTRAPERITONEAL ON D 1 THEN 200 MG/KG N-METHYLNITROSOUREA ON D 2, 5, 8, 11, AND 0.05% N,N-D): 9/16 (56%), 2/15 (13%), 77%, p<0.02 | tumour outcome (control, treated, inhibition, significance) (Carcinogen: VINYL CARBAMATE, 15805-73-9, 2.5 UMOL IN 0.2 ML ACETONE ONCE 10 MIN PRIOR TO CARCINOGEN DOSE (STUDY DURATION: 22 WK), Route [Inhibitor]: DERMAL, Species: MOUSE, Strain/Sex: ICR/FEMALE, Target Tissue: Type of Lesion: SKIN: PAPILLOMA, Dose [Carcinogen]: 5.8 UMOL IN 0.2 ML ACETONE ONCE, Promoter: 12-O-TETRADECANOYLPHORBOL 13-ACETATE, 16561-29-8): 70%, 53%, 24%, not significant
